Results reported in the NIST ThermoML archive (doi:10.1016/j.jct.2014.01.006).

Experiment: molar heat capacity at saturation pressure
Conditions: Vacuum adiabatic calorimetry

c1ccc(-c2cccc3ccccc23)cc1 [1-phenylnaphthalene]
Conditions | molar heat capacity [J/K/mol]
4.666 K, Crystal | 0.4324
5 K, Crystal | 0.5238
5.509 K, Crystal | 0.6901
6.425 K, Crystal | 1.131
7.372 K, Crystal | 1.671
8.352 K, Crystal | 2.37
9.357 K, Crystal | 3.243
10 K, Crystal | 3.899
10.42 K, Crystal | 4.348
11.58 K, Crystal | 5.512
12.87 K, Crystal | 7.134
14.3 K, Crystal | 8.921
15.89 K, Crystal | 11.19
17.68 K, Crystal | 13.76
19.66 K, Crystal | 16.7
20 K, Crystal | 17.2
21.86 K, Crystal | 20.01
24.3 K, Crystal | 23.71
26.97 K, Crystal | 27.69
29.93 K, Crystal | 31.88
30 K, Crystal | 31.97
33.23 K, Crystal | 36.31
36.92 K, Crystal | 40.94
40 K, Crystal | 44.47
41.05 K, Crystal | 45.63
45.65 K, Crystal | 50.63
50 K, Crystal | 54.82
50.77 K, Crystal | 55.5
56.48 K, Crystal | 60.59
57.01 K, Crystal | 60.79
57.98 K, Crystal | 61.8
60 K, Crystal | 63.39
61.92 K, Crystal | 65.08
63.69 K, Crystal | 66.18
66.86 K, Crystal | 68.59
70 K, Crystal | 70.93
70.04 K, Crystal | 71
71.83 K, Crystal | 72.22
76.82 K, Crystal | 75.66
77.08 K, Crystal | 75.91
80 K, Crystal | 77.87
81.77 K, Crystal | 79.16
84.85 K, Crystal | 81.07
86.7 K, Crystal | 82.3
90 K, Crystal | 84.45
92.7 K, Glass | 86.97
93.5 K, Crystal | 86.69
100 K, Crystal | 90.82
102.16 K, Glass | 93.03
102.86 K, Crystal | 92.63
111.98 K, Glass | 99.33
112.57 K, Crystal | 98.86
120 K, Crystal | 103.63
122.36 K, Crystal | 105.15
122.48 K, Glass | 106.16
132.22 K, Crystal | 111.61
133.24 K, Glass | 113.28
140 K, Crystal | 116.81
142.62 K, Crystal | 118.58
144.86 K, Glass | 121.24
153.97 K, Crystal | 126.35
158.22 K, Glass | 130.67
160 K, Crystal | 130.74
165.78 K, Crystal | 135.02
172.31 K, Glass | 140.99
177.53 K, Crystal | 143.52
180 K, Crystal | 145.34
183.8 K, Crystal | 148.26
184.4 K, Glass | 150.13
189.34 K, Crystal | 152.49
193.62 K, Glass | 157.14
195.08 K, Crystal | 157.04
198.88 K, Glass | 161.79
200 K, Crystal | 160.73
201.24 K, Crystal | 161.76
201.34 K, Glass | 162.43
206.16 K, Crystal | 165.72
212.82 K, Glass | 180.93
217.01 K, Crystal | 174.74
220 K, Crystal | 177.08
224.64 K, Liquid | 274.63
227.57 K, Crystal | 183.38
230.27 K, Liquid | 276.92
233.28 K, Liquid | 278.09
238.35 K, Crystal | 192.45
239.4 K, Liquid | 280.79
240 K, Crystal | 193.69
242.59 K, Liquid | 282.18
249.84 K, Crystal | 202.22
252.38 K, Liquid | 286.68
252.84 K, Liquid | 287
260 K, Crystal | 210.67
261.66 K, Crystal | 212.63
273.41 K, Crystal | 223.08
280 K, Crystal | 228.03
284.54 K, Liquid | 303.16
285.16 K, Crystal | 237.05
293.3 K, Liquid | 308.04
297.47 K, Crystal | 243.76
297.47 K, Liquid | 310.36
298.15 K, Liquid | 310.74
300 K, Liquid | 311.8
304.21 K, Liquid | 314.19
305.11 K, Liquid | 314.67
305.83 K, Liquid | 315.13
306.22 K, Liquid | 315.36
314.2 K, Liquid | 320
320 K, Liquid | 323.37
321.38 K, Liquid | 324.18
337.19 K, Liquid | 333.49
340 K, Liquid | 335.17
352.74 K, Liquid | 342.77
360 K, Liquid | 347.09
368.54 K, Liquid | 352.16
